Values joined by “and” are separate entries in the source; they are usually repeats but may differ in a detail not shown here. Equal entries are not always repeated. Structures can show the parent of a compound that is named as a salt.
Legend:
recombinant HIV-1 PR = recombinant HIV-1 PR (Human immunodeficiency virus type 1 group M subtype B, UniProt P04585); assay: FRET-based HIV-1 PR inhibition assay; assay type: biochemical; conditions: FRET substrate 5.0 µM, HIV-1 PR 35.2 nM, 37 °C, mean ± s.d., n = 3
[1] = in serum; ref [16]; cited from earlier work
[2] = Penetration and retention in mouse colorectal mucosa after rectal dosing; assay type: in vivo; conditions: mice, rectal 200 µl of 30 µM; at 2 h and 1 d; result in words
[3] = in vivo; cited from earlier work
HIV = conditions: tenofovir gel formulation, vaginal mucosa, CAPRISA 004; ref [4],[5]; cited from earlier work

Molecule: CC(C)CN(C[C@@H](O)[C@H](Cc1ccccc1)NC(=O)O[C@H]1CCOC1)S(=O)(=O)c1ccc(N)cc1 [APV, amprenavir]
- rate constant kobs of FRET substrate cleavage (slope of ln(F∞ – Ft) vs time) (recombinant HIV-1 PR; 1.0 µM APV): −0.1638 (± 0.0080) min^−1 and −0.1638 (± 0.007995) min^−1
- rate constant kobs of FRET substrate cleavage (slope of ln(F∞ – Ft) vs time) (recombinant HIV-1 PR; 2.0 µM APV): −0.0890 (± 0.0049) min^−1 and −0.0890 (± 0.004938) min^−1
- rate constant kobs of FRET substrate cleavage (slope of ln(F∞ – Ft) vs time) (recombinant HIV-1 PR; 5.0 µM APV): −0.03766 (± 0.0019) min^−1 and −0.03766 (± 0.00191) min^−1
- cell viability compared to untreated cells (MT-2 cells): no statistical difference in comparison to untreated cells

Molecule: CC(C)OC(=O)OCOP(=O)(CO[C@H](C)Cn1cnc2c(N)ncnc21)OCOC(=O)OC(C)C [TDF, tenofovir disoproxil fumarate]
- half-life [1]: about 17 hours

Molecule: fluoresceine thiourea [FTU]
- mucosal tissue concentration [2]: negligible

Molecule: CC(Cn1cnc2c(N)ncnc21)OCP(=O)(O)OP(=O)(O)OP(=O)(O)O (stereo in doubt) [tenofovir diphosphate]
- vaginal concentrations in tissue after daily gel administration [3]: about 1000 fmol/mg

Molecule: C[C@H](Cn1cnc2c(N)ncnc21)OCP(=O)(O)O [tenofovir]
- effectiveness in preventing HIV transmission (HIV): 39%
